Measurements reported in US6492410B1, “Combinations of protein farnesyltransferase and HMG CoA reductase inhibitors and their use to treat cancer” (Warner-Lambert Company, priority 1998, dated 2002).
Blank lines part the entries; values can stand above or below the compound they belong to.

Assays:
[1] = test system: EJ-1 human bladder carcinoma; settings: 100 mg/kg; EJ-1 xenograft in nude mice; cited from earlier work
[2] = test system: HT1080 human fibrosarcoma; settings: 100 mg/kg; HT1080 xenograft in nude mice; cited from earlier work
[3] = test system: human colon carcinoma xenografts; settings: 100 mg/kg; human colon carcinoma xenograft in nude mice; cited from earlier work
[4] = test system: human lung carcinoma with K-ras mutation and p53 deletion; settings: nude mice; cited from earlier work
[5] = test system: mammary and salivary carcinomas; settings: daily administration; ras transgenic mice; cited from earlier work
H-ras NIH 3T3 fibroblast = assay: cells; settings: Mus musculus, NIH3T3, 72 h, read-out: IC50 (concentration at which growth (cell#) is reduced by 50%)
Protocol: (§1) A proliferation assay was performed to ascertain the toxicity of a combination of a famesyl protein transferase and lovastatin at various concentrations to a number of cancerous cell lines. The assay was also performed to ascertain the toxicity of the farnesyl protein transferase alone as a comparison against the combination.
(§2) Cell lines (Panc-1, Colon26, HT-29 Colon, H460 Lung, H-ras NIH 3T3 fibroblast, P388/ADR leukemia, and P388/S leukemia) were set up at various starting concentrations in 24- or 12-well dishes. Suspension cells were treated immediately; attached monolayer cells were allowed to attach for 24 hours prior to treatment. The cells were treated in one series of tests with lovastatin and solvent (DMSO); in another series of tests with a combination of lovastatin, solvent (DMSO) and the farnesyltransferase inhibitor, (S)-[1-{(4-benzyloxy-benzyl)-[(2-methyl-2-phenyl-propyl carbamoyl)-methyl]-carbamoyl}-2-(3H1-imidazol-4-yl)-ethyl]-carbamic acid benzyl ester (Compound A); and in a third series of cells were treated with only the farnesyltransferase inhibitor. After 72 hours of treatment, the cells (growing in 1 mL of medium) are trypsinized with warm (37 degrees celsius) trypsin-EDTA (0.5 mL for 1-2 minutes), agitated, rescued with 0.5 mL of warm (37) medium, then diluted in […] Isoton (isotonic saline) for a final volume of 10 mL, 0.5 mL are then counted on a Coulter cell counter.
(§3) The data for lovastatin treatment alone is relative to the DMSO-treated controls; the data for combination treatment is relative to the PFT inhibitor treatment alone samples.

Panc-1 = assay: cells; settings: Homo sapiens, PANC-1, 72 h, read-out: IC50 (concentration at which growth (cell#) is reduced by 50%)
Protocol: as §1, §2, §3

Colon26 = assay: cells; settings: Mus musculus, Colon 26, 72 h, read-out: IC50 (concentration at which growth (cell#) is reduced by 50%)
Protocol: as §1, §2, §3

P388/ADR leukemia = assay: cells; settings: Mus musculus, 72 h, read-out: IC50 (concentration at which growth (cell#) is reduced by 50%)
Protocol: as §1, §2, §3

H460 Lung = assay: cells; settings: Homo sapiens, NCI-H460, 72 h, read-out: IC50 (concentration at which growth (cell#) is reduced by 50%)
Protocol: as §1, §2, §3

HT-29 Colon = assay: cells; settings: Homo sapiens, HT-29, 72 h, read-out: IC50 (concentration at which growth (cell#) is reduced by 50%)
Protocol: as §1, §2, §3

P388/S leukemia = assay: cells; settings: Mus musculus, 72 h, read-out: IC50 (concentration at which growth (cell#) is reduced by 50%)
Protocol: as §1, §2, §3

[6] = test system: hepatocellular, pancreatic, and central nervous system tumors; settings: in vitro and in animal models; cited from earlier work

SMILES: COC(=O)[C@H](CCSC)NC(=O)[C@H](/C=C\[C@@H](/C=C/[C@@H](N)CS)C(C)C)Cc1ccccc1 [B 1086]
tumor growth [1]: inhibit tumor growth
tumor growth [2]: inhibit tumor growth
tumor growth [3]: inhibit tumor growth

SMILES: CSCC[C@H](NC(=O)c1ccc(NC[C@@H](N)CS)cc1-c1ccccc1)C(=O)O [FT1276]
tumor growth [4]: selectively block tumor growth

SMILES: CC[C@H](C)[C@@H](CO[C@@H](Cc1ccccc1)C(=O)N[C@@H](CCS(C)(=O)=O)C(=O)OC(C)C)NC[C@@H](N)CS [L-744,832]
tumor regression [5]: caused tumor regression

IC50 (Panc-1): 18.8 µM
IC50 (P388/ADR leukemia): 10.7 µM
IC50 (H460 Lung): 5.5 µM
IC50 (HT-29 Colon): 11.4 µM
IC50 (P388/S leukemia): 4 µM
SMILES: CC[C@H](C)C(=O)O[C@H]1C[C@@H](C)C=C2C=C[C@H](C)[C@H](CC[C@@H]3C[C@@H](O)CC(=O)O3)[C@H]21 [Lovastatin, lovastatin]
IC50 (H-ras NIH 3T3 fibroblast): 17.4 µM
IC50 (Colon26): 1.2 µM
tumor growth [6]: selectively inhibited tumor growth
